Reference: US20230107770A1, “METHOD OF ENHANCING IMMUNOTHERAPY USING ER STRESS PATHWAY INHIBITORS” (H. LEE MOFFITT CANCER CENTER AND RESEARCH INSTITUTE, INC., priority 2020, published 2023)

Key:
[1] = system: B16 tumors; assay: s.c. B16 melanoma tumor model in mice; assay type: in vivo
[2] = Blood glucose and pancreatic islets in B16-bearing mice; assay type: in vivo
Source text: Hematoxylin and Eosin (H&E) stained slides were scanned in an Aperio AT2 whole slide scanner (Leica Biosystems Inc.) equipped with a 20×0.7NA objective lens Images were created at 0.5 micron per pixel resolution and imported into Definiens Tissue Studio software v4.7 (Definiens AG) for analysis. Islets were found using a semi-automated segmentation process. First an automatic segmentation was applied to the image to create contour lines around objects within the image. Objects that contained islets were classified as such and remaining objects were classified as non-islet tissue. Next, adjacent objects of the same classification were merged together to clean up the segmentation. Segmented images were analyzed to provide the total area of islets Immunofluorescence for mouse insulin in pancreas tissue sections was performed as we described (Sultan et al., 2017). Labeled samples were scanned with a Zeiss Imager Z2 Upright FL microscope with a 10× objective lens using the tile scan function. Images were created at a
0.65 micron per pixel resolution and imported into the Definiens Tissue Studio software v4.7 (Definiens AG) for islet detection and analysis. Islets were detected using a semi-automated segmentation process. First, an automatic segmentation was applied to the image to detect the tissue. Then, the software was trained to detect islet vs. non-islet tissue within the image. In order to remove false detected islets caused by background staining, detected islets larger than 150,000 square microns and less than 600 square microns were reclassified to non-islet tissue. Segmented images were then analyzed to provide the fluorescent intensity of islets and total tissue area.

[3] = system: human FSH-CER T cells; assay: Expansion of IL-2-supplemented human FSH-CER T cells with ER stress inhibitors; assay type: cell-based; conditions: treatment for 5 days
Method: The role of the PERK-Chop in the expansion of tumor TRM cells using conditional T cell Chop-null mice was evaluated. In agreement with the inhibitory effect of Chop in TRM development, higher frequency of TRM cells was detected in tumors from T cell-Chop^KO mice compared to controls (FIG. 23A). Next, we tested the effect of the inhibition of PERK (AMG-44) and IRE 1α (MKC8866) during the expansion of IL-2-supplemented human FSH-CER T cells. […] Also, we evaluated the therapeutic effect of the combination of ER stress-targeting therapy and FSH-CER. Thus, mice bearing FSHR+-ID8-Defb29/Vegfa ovarian tumors for 7 days received daily treatments with MKC8866 (i.p., 300 mg/kg) or AMG-44 (i.p. 12 mg/kg) for one-week, and i.p. transfer of FSH-CER T cells at days 7 and 14 post-tumor challenge. […] We postulate that treatments for longer time periods with ER stress inhibitors will further potentiate the effect of FSH-CER T cells

[4] = system: FSHR+-ID8-Defb29/Vegfa ovarian tumors; assay: ER stress-targeting therapy combined with FSH-CER T cells in ovarian tumor-bearing mice; assay type: in vivo; conditions: MKC8866 i.p. 300 mg/kg or AMG-44 i.p. 12 mg/kg daily for one week; FSH-CER T cells days 7 and 14
Method: The role of the PERK-Chop in the expansion of tumor TRM cells using conditional T cell Chop-null mice was evaluated. In agreement with the inhibitory effect of Chop in TRM development, higher frequency of TRM cells was detected in tumors from T cell-Chop^KO mice compared to controls (FIG. 23A). Next, we tested the effect of the inhibition of PERK (AMG-44) and IRE 1α (MKC8866) during the expansion of IL-2-supplemented human FSH-CER T cells. […] Also, we evaluated the therapeutic effect of the combination of ER stress-targeting therapy and FSH-CER. […]
Activation of the UPR in cancer cells mediates adaptation processes in the TME, whereas UPR priming in tumor-myeloid cells promotes their immunoregulatory activity. […] As main readouts of therapeutic efficacy, we will monitor tumor burden, overall survival, and tumor CER-T cell infiltration, persistence, and cytotoxic capacity (Exp. C.2.1.1). […] Additionally, we will sort DCs and MDSC from tumor sites and lymphoid organs to quantify the expression of ER stress gene markers, their ability to impair T cell proliferation and IFNγ production, and the levels of the UPR-related immunoinhibitory factors IL-6, PGE2, Cox-2, mPGES-1, and Arginase I. All required methods are established by our groups. […]

Q: For `Cc1ccc2cc(-c3c(C)ccc(C(=O)c4c(-c5ccccc5)n(C)n(-c5ccccc5)c4=O)c3N)ccc2n1` [AMG-44], which “combination with anti-PD-L1 immunotherapy” value ([1]; B16-bearing mice, AMG-44 12 mg/kg plus 250 μg anti-PD-L1 every 3rd day) is on record?
A: The value was “synergized with anti-PD-L1 immunotherapy”.

Q: What about the “therapeutic anti-tumor action in Eif2ak3^KO-Lyz2 mice” value ([1]; B16, AMG-44 12 mg/kg) of the same compound?
A: Its value is “not in Eif2ak3^KO-Lyz2 counterparts”.

Q: What about the “therapeutic anti-tumor action in PERK-competent mice” value ([1]; B16, AMG-44 12 mg/kg, Eif2ak3^Flox mice) of the same compound?
A: The value was “detected in PERK-competent mice”.

Q: What about the tumor growth ([1]; B16, daily i.p. GSK2606414 25 mg/kg or AMG-44 12 mg/kg from day 7) of the same compound?
A: The tumor growth was “delayed tumor growth”.

Q: And the blood glucose levels ([2]; AMG-44 12 and 24 mg/kg)?
A: Its blood glucose levels is “without alterations”.

Q: And the “insulin expression in the pancreatic islets” value ([2]; AMG-44 12 and 24 mg/kg)?
A: Its value is “without alterations”.

Q: What about the “size of the pancreatic islets” value ([2]; AMG-44 12 and 24 mg/kg) of the same compound?
A: The value was “without alterations”.

Q: And the “glucose levels in the serum” value ([2]; B16-bearing mice treated for a week, GSK2606414 25 mg/kg or AMG-44 12 mg/kg, day 17)?
A: Its value is “failed to show alterations in glucose levels”.

Q: And the “frequency of FSH-CER TRM cells” value [3]?
A: The value was “Higher frequency of FSH-CER TRM cells”.

Q: What about the “survival of hosts receiving FSH-CER T cells plus inhibitor” value [4] of the same compound?
A: Its value is “Prolonged survival”.
